According to US20250269039A1, “THERAPEUTIC-OLIGONUCLEOTIDES ACTIVATED BY NUCLEASES” (priority 2020, published 2025):
Where two headings read alike, the source gives them in different places.

What was measured:
[1] = system: S. epidermidis ATCC 35984; assay: Broth microdilution MIC and growth inhibition (control bacteria); assay type: cell-based, Staphylococcus epidermidis; conditions: for MIC: 18 h, TOUCAN as NA equivalent
Text: Bacteria strains. S. aureus NCTC 12493 (MRSA), S. aureus ATCC 29213 (MSSA), S. aureus ATCC 43300 (MRSA), S. aureus ATCC 1707 (MRSA), S. aureus ATCC 1717 (MRSA), S. aureus ATCC 1747 (MRSA), S. aureus ATCC 1761 (MRSA), S. aureus ATCC 1766 (MRSA), S. aureus ATCC 1768 (MRSA), S. epidermidis ATCC 35984, E. coli ATCC 25922, K. pneumoniae ATCC 13883, P. mirabilis ATCC 25933, S. enterica ATCC 14028 and P. aeruginosa ATCC 10145 strains were used in this study. Bacteria were initially inoculated onto tryptone soy agar with 5% defibrinated sheep blood (Thermo Fisher Scientific, Inc., Waltham, MA, USA) and incubated at 37° C. for 24 hours. Then, single colonies of each strain were transferred to tryptone soy broth (Thermo Fisher Scientific) for the nuclease activity assay or antimicrobial susceptibility testing, respectively.
Antimicrobial susceptibility testing. Minimal inhibitory concentrations (MIC) of all nucleoside analogues and TOUCANs against each bacteria strain were determined using broth microdilution method. A single colony obtained from overnight culture on tryptone soy agar with 5% defibrinated sheep blood was inoculated in cation-adjusted Mueller Hinton Broth and adjusted to 10^6 CFU/mL. TOUCANs were prepared in PBS+/+ (treatment) and serial dilutions were made in 96-well polystyrene round bottom microwell plates with 50 μL final volume for each concentration. PBS+/+ was used as untreated control. Next, 50 μL bacteria solutions were added to each well to a final bacteria concentration of 5×10^5 CFU/mL. Plates were incubated at 37° C. in Cytation 1 Cell Imaging Multimode Reader. Growth curves were obtained by measuring optical densities at 600 nm every 10 minutes for 18 hours using Cytation 1 Cell Imaging Multimode Reader. In addition, visual inspection of the plates was carried out after 18 hours and photographs were taken. MICs were defined as the lowest drug concentration in the microwell at which bacterial growth was not visible at the end of the incubation period. Besides MIC determination, specificity of TOUCAN 7mGe was also shown with subcultures on chromogenic media. For this purpose, 5 μL of different concentrations of each strain were inoculated onto CHROM agar Orientation Media (Becton Dickinson) and the bacterial growth of each bacteria strain tested was observed by naked eye after incubation at 37° C. for 24 hours. Finally, photographs of the chromogenic media were taken.

S. aureus ATCC1766 = assay: Mouse thigh muscle infection model: gross pictures, histopathology, bacteria counts; assay type: in vivo, mice; conditions: for histopathological analysis of infected leg / visible bacterial infection of infected leg (gross photographs): mice, i.v.; for histopathological analysis of infected leg: 20 mg/kg/24 hour Floxuridine equivalent, FIG. 7d-g; for visible bacterial infection of infected leg (gross photographs): four doses equivalent to 5 mg/kg Floxuridine over 24 hours, FIG. 7a-c
Method: In vivo assessment of the therapeutic efficacy of TOUCANs in a mouse infection model. All animal experiments described in this study were conducted at the Linköping University Center for Biomedical Resources and were approved by the Swedish Ethical Board “Jordbruksverket” under the animal protocol 1253. All experiments were conducted according to the principles expressed in the Declaration of Helsinki. Six-weeks old female […] mice were divided into three different groups: Placebo (saline solution), Floxuridine alone and TOUCAN 7mFx, with 8 mice per group. First, to induce the infection, S. aureus ATCC1766 strain was cultured on tryptone soy agar with 5% defibrinated sheep blood, and single colonies were transferred to 25 mL tryptone soy broth and incubated at 37° C. for 12 hours with 200 rpm shaking. Next, bacteria solution was diluted 1/100 using PBS+/+ (˜10^7 CFU/mL) and 50 μL (˜5×10^5 CFU) were injected into the right thigh muscles of all mice under sterile conditions and 2% isoflurane anesthesia. This method was optimized based on our previous animal infection model.^16 In this model, the left uninfected leg was used as control for each animal. This model induces reproducible infections after 24 hours. Next, the therapeutic regime was adapted from a previous study that validated the efficacy of several antibiotics against S. aureus.^28 We have treated the mice for 24 hours with four doses of TOUCAN 7mFx equivalent to 5 mg/kg of Floxuridine in 100 μL of PBS−/−, administered intravenously by tail vein injections. The first dose was administered after 2 hours post-inoculation, followed by 3 additional injections at the same concentration every 6 hours. In total, each animal was given TOUCAN 7mFx equivalent to 20 mg/kg/24 hour of Floxuridine. In this study, two additional groups, Placebo and Floxuridine alone, were also tested in infected animals. In the Placebo group, mice were injected with a saline solution (PBS), and in the Floxuridine group, mice were injected with 20 mg/kg/24 hours of Floxuridine under the same conditions indicated for TOUCAN 7mFx. After 24 hours, blood samples were collected, and mice were euthanized. For a thorough blood analysis, we have included an additional group of uninfected/untreated mice as control. Next, gross pictures of both legs were taken and samples for histopathological and bacteriological analyses were collected. At least four mice per group per analysis were used in this study.
Gross pictures. Once the mice were euthanized, the skin from legs and dorsal part was removed very carefully to allow observation of the bacterial infection and the associated tissue damage. Next, photographs were taken to document the localized infection for each animal.
Histopathological analysis. To evaluate the histopathological features of infected and uninfected tissues, the thigh muscles of the animals were dissected. Subsequently, tissues were transferred to 4% buffered formaldehyde solution and stored at 4° C. for 24 hours. Then, tissues were removed from the formaldehyde solution and transferred into 50% ethanol for 15 minutes followed by 70% ethanol until processed. Next, tissues were fixed, dehydrated and wax infiltrated using a Leica TP1020 system for 7 hours. Subsequently, tissues were embedded in paraffin using a Leica EG 1150 system. The sections slides were prepared using an Automatic Rotary Microtome HM355S system and finally, samples were stained with Hematoxylin-Eosin (H&E) using an Automatic Leica ST4020 Linear Stainer. The slides were imaged using an Olympus BX51 light microscope.
Bacteria counts. To measure viable bacteria in mice, infected and uninfected tissues from both legs were collected, transferred to individual 1.5 mL vials and weighted on a microbalance. Each sample was homogenized in 1 mL of PBS using Fisherbrand Bead Mill 4 automatic homogenizer (Fisher Scientific). The homogenized solutions were serially diluted to 1:100, 1:1.000, 1:10.000 and 1:100.000. […]

[2] = Complete blood counts of infected/treated mice; conditions: for percentage of neutrophils in blood: infected treated mice, after 24 hours, FIG. 7i; for BAS / BAS % / EO / EO % / HCT / HGB / LYM / LYM % / MCH / MCHC / MCV / MON / MON % / NE / NE % / PLT / RBC / RET / RET % / WBC: infected/treated mice, blood after 24 hours, AVG, n = 4; for change of red blood cells (RBCs), hematocrit and hemoglobin (acute blood toxicity): treated mice versus uninfected and placebo groups, FIG. 11
[3] = infected leg, CFU/g, after 24 hours, FIG. 7h

| Compound | histopathological analysis of infected leg (S. aureus ATCC1766) | visible bacterial infection of infected leg (gross photographs) (S. aureus ATCC1766) | percentage of neutrophils in blood [2] | BAS [2] | BAS % [2] | EO [2] | EO % [2] | HCT [2] | HGB [2] | LYM [2] | LYM % [2] | MCH [2] | MCHC [2] | MCV [2] | MON [2] | MON % [2] | NE [2] | NE % [2] | PLT [2] | RBC [2] | also measured |
| --- | --- | --- | --- | --- | --- | --- | --- | --- | --- | --- | --- | --- | --- | --- | --- | --- | --- | --- | --- | --- | --- |
| mU-mU-mU-mU-T-T-Fx [TOUCAN 7mFx] | minimal inflammation with residual neutrophil infiltration | do not show any visible signs of bacterial infection | 13.8% | 0.0 10^9/L | 0.3% | 0.0 10^9/L | 1.3% | 44.5% | 14.0 g/dL | 1.6 10^9/L | 68.6% | 15.0 pg | 31.4 g/dL | 47.9 fL | 0.4 10^9/L | 15.7% | 0.3 10^9/L | 14.1% | 630.0 K/μL | 9.3e+12 L⁻¹ | MIC ([1]; S. epidermidis ATCC 35984): >40 µg/mL; TOUCAN % Growth inhibition ([1]; S. epidermidis ATCC 35984, mean ± SD, n = 3): 7.4 ± 4.0%; growth inhibition, dose response ([1]; S. epidermidis, all concentrations tested, FIG. 5): no growth inhibition; times less bacteria recovered compared to Floxuridine group (S. aureus ATCC1766; [3]): 2949 times; times less bacteria recovered compared to Placebo group (S. aureus ATCC1766; [3]): 642 times; RET [2]: 257.7 K/μL; RET % [2]: 2.8%; WBC [2]: 2.4 10^9/L; change of red blood cells (RBCs), hematocrit and hemoglobin (acute blood toxicity) [2]: no difference |
| O=c1[nH]c(=O)n([C@H]2C[C@H](O)[C@@H](CO)O2)cc1F [Floxuridine, reference compound] | clear evidence of bacterial infection, inflammation, and neutrophil infiltration | slightly stronger infection | 30.3% | 0.0 10^9/L | 0.5% | 0.0 10^9/L | 1.0% | 40.8% | 12.8 g/dL | 1.1 10^9/L | 48.9% | 14.8 pg | 31.5 g/dL | 47.4 fL | 0.3 10^9/L | 13.5% | 0.7 10^9/L | 36.1% | 599.3 K/μL | 8.6e+12 L⁻¹ | MIC ([1]; Staphylococcus epidermidis, ATCC35984, S. epidermidis ATCC 35984, read-out: MIC): 0.04 µg/mL; bacteria count of infected leg (S. aureus ATCC1766; infected leg, after 24 hours, FIG. 7h): high bacteria count; RET [2]: 384.9 K/μL; RET % [2]: 4.5%; WBC [2]: 2.2 10^9/L; change of red blood cells (RBCs), hematocrit and hemoglobin (acute blood toxicity) [2]: reduction |
